# Measurements: PubChem BioAssay AID256 (DTP/NCI, 2004)
# Values joined by “and” are separate entries in the source; they are usually repeats but may differ in a detail not shown here. Equal entries are not always repeated. Toxic doses and inconclusive results are not listed.
# Test system: CD2F1 mice, L1210 leukemia ip, survival T/C
# Experiment: NCI In Vivo Anticancer Drug Screen. Data for tumor model L1210 Leukemia (intraperitoneal) in CD2F1 (CDF1) mice
# Settings: higher = longer survival
# In short: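 In this screen, transplantable tumors were grown in mice given either the compound or its vehicle. Results were expressed as the treated measurement relative to the control measurement.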
# [1] = endpoint: mean survival time, dose: 100.0 mg/kg/injection, schedule: Q01DX009 (ip), vehicle: saline with Tween-80
# [2] = endpoint: mean survival time, dose: 400.0 mg/kg/injection, schedule: Q01DX009 (ip), vehicle: saline with Tween-80
# [3] = endpoint: mean survival time, dose: 100.0 mg/kg/injection, schedule: Q04DX003 (ip), vehicle: saline with Tween-80
compound,measurement,setting,value
N=C(N)SCc1c2ccccc2c(CSC(=N)N)c2ccccc12,T/C,"endpoint: mean survival time, dose: 0.06 mg/kg/injection, schedule: Q#B X Z (ip), vehicle: saline",109 % of control
same,T/C,"endpoint: mean survival time, dose: 0.13 mg/kg/injection, schedule: Q#B X Z (ip), vehicle: saline",121 % of control
same,T/C,"endpoint: mean survival time, dose: 0.39 mg/kg/injection, schedule: Q01DX Z (ip), vehicle: saline",115 % of control
same,T/C,"endpoint: mean survival time, dose: 0.78 mg/kg/injection, schedule: Q01DX Z (ip), vehicle: saline",121 % of control
same,T/C,"endpoint: mean survival time, dose: 1.04 mg/kg/injection, schedule: Q#B X Z (ip), vehicle: saline",155 % of control
same,T/C,"endpoint: mean survival time, dose: 2.08 mg/kg/injection, schedule: Q#B X Z (ip), vehicle: saline",160 % of control
same,T/C,"endpoint: mean survival time, dose: 3.13 mg/kg/injection, schedule: Q01DX Z (ip), vehicle: saline",151 % of control
same,T/C,"endpoint: mean survival time, dose: 6.25 mg/kg/injection, schedule: Q01DX Z (ip), vehicle: saline",162 % of control
same,T/C,"endpoint: mean survival time, dose: 8.33 mg/kg/injection, schedule: Q#B X Z (ip), vehicle: saline",119 % of control
same,T/C,"endpoint: mean survival time, dose: 12.5 mg/kg/injection, schedule: Q01DX Z (ip), vehicle: saline",156 % of control
same,T/C,"endpoint: mean survival time, dose: 16.66 mg/kg/injection, schedule: Q#B X Z (ip), vehicle: saline",98 % of control
same,T/C,"endpoint: mean survival time, dose: 25.0 mg/kg/injection, schedule: Q01DX Z (ip), vehicle: saline",155 % of control
same,T/C,"endpoint: mean survival time, dose: 50.0 mg/kg/injection, schedule: Q01DX001 (ip), vehicle: saline",158 % of control
same,T/C,"endpoint: mean survival time, dose: 50.0 mg/kg/injection, schedule: Q03HX008 (ip), vehicle: saline",178 % of control
same,T/C,"endpoint: mean survival time, dose: 50.0 mg/kg/injection, schedule: Q03HX016 (ip), vehicle: saline",175 % of control
same,T/C,"endpoint: mean survival time, dose: 50.0 mg/kg/injection, schedule: Q06HX004 (ip), vehicle: saline",151 % of control
same,T/C,"endpoint: mean survival time, dose: 50.0 mg/kg/injection, schedule: Q08DX002 (ip), vehicle: saline",174 % of control
same,T/C,"endpoint: mean survival time, dose: 50.0 mg/kg/injection, schedule: Q12HX002 (ip), vehicle: saline",173 % of control
same,T/C,"endpoint: mean survival time, dose: 50.0 mg/kg/injection, schedule: Q12HX004 (ip), vehicle: saline",189 % of control
same,T/C,"endpoint: mean survival time, dose: 80.0 mg/kg/injection, schedule: Q01DX001 (ip), vehicle: saline",168 % of control
same,T/C,"endpoint: mean survival time, dose: 100.0 mg/kg/injection, schedule: Q01DX001 (ip), vehicle: saline",193 % of control
same,T/C,"endpoint: mean survival time, dose: 100.0 mg/kg/injection, schedule: Q01DX009 (ip), vehicle: saline",154 % of control
same,T/C,"endpoint: mean survival time, dose: 100.0 mg/kg/injection, schedule: Q01DX Z (ip), vehicle: saline",124 % of control
same,T/C,"endpoint: mean survival time, dose: 100.0 mg/kg/injection, schedule: Q03HX008 (ip), vehicle: saline",196 % of control
same,T/C,"endpoint: mean survival time, dose: 100.0 mg/kg/injection, schedule: Q03HX016 (ip), vehicle: saline",194 % of control
same,T/C,"endpoint: mean survival time, dose: 100.0 mg/kg/injection, schedule: Q08DX002 (ip), vehicle: saline",220 % of control
same,T/C,"endpoint: mean survival time, dose: 100.0 mg/kg/injection, schedule: Q12HX002 (ip), vehicle: saline",239 % of control
same,T/C,"endpoint: mean survival time, dose: 100.0 mg/kg/injection, schedule: Q12HX004 (ip), vehicle: saline",224 % of control
same,T/C,"endpoint: mean survival time, dose: 125.0 mg/kg/injection, schedule: Q01DX001 (ip), vehicle: saline",113 % of control
same,T/C,"endpoint: mean survival time, dose: 200.0 mg/kg/injection, schedule: Q01DX001 (ip), vehicle: saline",227 % of control
same,T/C,"endpoint: mean survival time, dose: 200.0 mg/kg/injection, schedule: Q01DX009 (ip), vehicle: saline",106 % of control
same,T/C,"endpoint: mean survival time, dose: 200.0 mg/kg/injection, schedule: Q01DX010 (oral), vehicle: saline",94 % of control
same,T/C,"endpoint: mean survival time, dose: 200.0 mg/kg/injection, schedule: Q01DX Z (ip), vehicle: saline",88 % of control
same,T/C,"endpoint: mean survival time, dose: 200.0 mg/kg/injection, schedule: Q03HX008 (ip), vehicle: saline",207 % of control
same,T/C,"endpoint: mean survival time, dose: 200.0 mg/kg/injection, schedule: Q03HX016 (ip), vehicle: saline",204 % of control
same,T/C,"endpoint: mean survival time, dose: 200.0 mg/kg/injection, schedule: Q06HX008 (ip), vehicle: saline",179 % of control
same,T/C,"endpoint: mean survival time, dose: 200.0 mg/kg/injection, schedule: Q08DX002 (ip), vehicle: saline",197 % of control
same,T/C,"endpoint: mean survival time, dose: 200.0 mg/kg/injection, schedule: Q12HX002 (ip), vehicle: saline",254 % of control
same,T/C,"endpoint: mean survival time, dose: 200.0 mg/kg/injection, schedule: Q12HX004 (ip), vehicle: saline",158 % of control
same,T/C,"endpoint: mean survival time, dose: 320.0 mg/kg/injection, schedule: Q01DX001 (ip), vehicle: saline",100 % of control
same,T/C,"endpoint: mean survival time, dose: 400.0 mg/kg/injection, schedule: Q01DX010 (oral), vehicle: saline",90 % of control
same,T/C,"endpoint: mean survival time, dose: 400.0 mg/kg/injection, schedule: Q03HX016 (ip), vehicle: saline",111 % of control
same,T/C,"endpoint: mean survival time, dose: 400.0 mg/kg/injection, schedule: Q06HX004 (ip), vehicle: saline",183 % of control
same,T/C,"endpoint: mean survival time, dose: 400.0 mg/kg/injection, schedule: Q06HX008 (ip), vehicle: saline",152 % of control
same,T/C,"endpoint: mean survival time, dose: 400.0 mg/kg/injection, schedule: Q08DX002 (ip), vehicle: saline",152 % of control
same,T/C,"endpoint: mean survival time, dose: 400.0 mg/kg/injection, schedule: Q12HX004 (ip), vehicle: saline",118 % of control
same,T/C,"endpoint: mean survival time, dose: 800.0 mg/kg/injection, schedule: Q01DX010 (oral), vehicle: saline",88 % of control
same,T/C,"endpoint: mean survival time, dose: 1000.0 mg/kg/injection, schedule: Q01DX001 (ip), vehicle: saline",162 % of control
CCCCCCCCCCCCSC#N,T/C,"endpoint: mean survival time, dose: 100.0 mg/kg/injection, schedule: Q04DX002 (ip), vehicle: Klucel (hydroxypropylcellulose) (HPC)",101 % of control
same,T/C,"endpoint: mean survival time, dose: 100.0 mg/kg/injection, schedule: Q04DX002 (ip), vehicle: saline with Tween-80",96 % of control
same,T/C,"endpoint: mean survival time, dose: 200.0 mg/kg/injection, schedule: Q04DX002 (ip), vehicle: Klucel (hydroxypropylcellulose) (HPC)",101 % of control
same,T/C,"endpoint: mean survival time, dose: 200.0 mg/kg/injection, schedule: Q04DX002 (ip), vehicle: saline with Tween-80",101 % of control
CCOC(=O)C[n+]1ccccc1,T/C,"endpoint: mean survival time, dose: 100.0 mg/kg/injection, schedule: Q04DX003 (ip), vehicle: saline",107 % of control and 95 % of control
same,T/C,"endpoint: mean survival time, dose: 200.0 mg/kg/injection, schedule: Q04DX003 (ip), vehicle: saline",90 % of control and 89 % of control
CCOc1c(NCCO)c2cc(Cl)ccc2oc1=O,T/C,"endpoint: mean survival time, dose: 100.0 mg/kg/injection, schedule: Q01DX001 (ip), vehicle: saline with Tween-80",95 % of control
same,T/C,"endpoint: mean survival time, dose: 200.0 mg/kg/injection, schedule: Q01DX001 (ip), vehicle: saline with Tween-80",87 % of control
same,T/C,"endpoint: mean survival time, dose: 400.0 mg/kg/injection, schedule: Q01DX001 (ip), vehicle: saline with Tween-80",97 % of control
CCCN(CCC)C(=S)[S-].CCCN(CCC)C(=S)[S-].[Zn],T/C,"endpoint: mean survival time, dose: 75.0 mg/kg/injection, schedule: Q04DX003 (ip), vehicle: saline",95 % of control
same,T/C,"endpoint: mean survival time, dose: 150.0 mg/kg/injection, schedule: Q04DX003 (ip), vehicle: saline",86 % of control
same,T/C,"endpoint: mean survival time, dose: 300.0 mg/kg/injection, schedule: Q04DX003 (ip), vehicle: saline",101 % of control
CCCCCCCCCCCCN(CN1C(=O)c2ccccc2C1=O)CN1C(=O)c2ccccc2C1=O,T/C,[1],92 % of control
same,T/C,[2],86 % of control
C/C(CC(C)C)=N\NC(=O)CNC(=O)c1ccccc1,T/C,[1],90 % of control
same,T/C,"endpoint: mean survival time, dose: 200.0 mg/kg/injection, schedule: Q01DX009 (ip), vehicle: saline with Tween-80",92 % of control
same,T/C,[2],96 % of control
CC(C)=C(CO)CCC(C)C,T/C,[3],100 % of control
same,T/C,"endpoint: mean survival time, dose: 200.0 mg/kg/injection, schedule: Q04DX003 (ip), vehicle: saline with Tween-80",103 % of control
CC(=O)c1ccc(N=NN(C)C)cc1,T/C,"endpoint: mean survival time, dose: 2.37 mg/kg/injection, schedule: Q01DX009 (ip), vehicle: Klucel (hydroxypropylcellulose) (HPC)",96 % of control
same,T/C,"endpoint: mean survival time, dose: 9.5 mg/kg/injection, schedule: Q01DX009 (ip), vehicle: Klucel (hydroxypropylcellulose) (HPC)",96 % of control
same,T/C,"endpoint: mean survival time, dose: 19.0 mg/kg/injection, schedule: Q01DX009 (ip), vehicle: Klucel (hydroxypropylcellulose) (HPC)",110 % of control
same,T/C,"endpoint: mean survival time, dose: 58.0 mg/kg/injection, schedule: Q01DX009 (ip), vehicle: Klucel (hydroxypropylcellulose) (HPC)",101 % of control
c1ccc(-c2nncnn2)cc1,T/C,[3],92 % of control
COc1cc2c(oc(=O)c3cc(C)cc(OC)c32)c2c(C3OC(C)C(O)C(C)(O)C3O)ccc(O)c12 (configuration not stated),T/C,"endpoint: median survival time, dose: 3.12 mg/kg/injection, schedule: Q01DX005 (ip), vehicle: DMSO",109 % of control and 110 % of control
same,T/C,"endpoint: median survival time, dose: 6.25 mg/kg/injection, schedule: Q01DX005 (ip), vehicle: DMSO",108 % of control and 110 % of control
same,T/C,"endpoint: median survival time, dose: 12.5 mg/kg/injection, schedule: Q01DX005 (ip), vehicle: DMSO",121 % of control and 103 % of control and 109 % of control
same,T/C,"endpoint: median survival time, dose: 25.0 mg/kg/injection, schedule: Q01DX005 (ip), vehicle: DMSO",113 % of control and 118 % of control and 109 % of control
same,T/C,"endpoint: median survival time, dose: 50.0 mg/kg/injection, schedule: Q01DX005 (ip), vehicle: DMSO",116 % of control and 112 % of control
same,T/C,"endpoint: median survival time, dose: 100.0 mg/kg/injection, schedule: Q01DX005 (ip), vehicle: DMSO",121 % of control
Cn1c(=O)c2c(ncn2C(C=O)OC(C=O)CO)n(C)c1=O (configuration not stated),T/C,"endpoint: mean survival time, dose: 12.5 mg/kg/injection, schedule: Q01DX005 (ip), vehicle: water",101 % of control
same,T/C,"endpoint: mean survival time, dose: 25.0 mg/kg/injection, schedule: Q01DX005 (ip), vehicle: water",104 % of control
same,T/C,"endpoint: mean survival time, dose: 50.0 mg/kg/injection, schedule: Q01DX005 (ip), vehicle: water",110 % of control
same,T/C,"endpoint: mean survival time, dose: 100.0 mg/kg/injection, schedule: Q01DX005 (ip), vehicle: water",112 % of control
